Reference: US20240360194A1, “New Peptides as Potent and Selective GIP Receptor Agonists” (Sanofi, priority 2021, published 2024)
≈ marks a conversion by molar mass, not a printed value. Like-named read-outs stand apart in the source and are kept apart here.

Columns and labels:
[1] = target: T1, human GIP receptor (hGIPR) (Homo sapiens, UniProt P48546); assay: In vitro cellular cAMP assay for GIP receptor efficacy (HEK-293 cell line over-expressing receptor); type: cell-based
T1 sequence (P48546 22-466): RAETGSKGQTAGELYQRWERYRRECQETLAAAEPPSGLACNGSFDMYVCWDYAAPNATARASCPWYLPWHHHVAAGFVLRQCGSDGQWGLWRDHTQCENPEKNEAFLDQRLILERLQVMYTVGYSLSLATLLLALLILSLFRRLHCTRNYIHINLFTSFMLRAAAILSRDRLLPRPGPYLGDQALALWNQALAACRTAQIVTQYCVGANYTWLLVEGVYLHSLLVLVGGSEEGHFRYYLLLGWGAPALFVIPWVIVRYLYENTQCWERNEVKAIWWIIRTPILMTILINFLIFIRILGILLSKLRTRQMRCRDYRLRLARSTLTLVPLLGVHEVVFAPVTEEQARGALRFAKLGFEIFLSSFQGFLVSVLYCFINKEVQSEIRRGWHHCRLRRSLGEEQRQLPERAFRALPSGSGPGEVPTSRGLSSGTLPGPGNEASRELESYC

[2] = target: T2, human GLP-1 receptor (hGLP-1R) (Homo sapiens, UniProt P43220); assay: Binding assay, displacement of [125I]GLP-1 from HEK-293 membranes over-expressing GLP-1R (SPA); details: [125I]GLP-1 displacement
Experimental: (1) Preparation of Membranes from HEK-293 Cells Over-Expressing GIPR or GLP-1R
HEK-293 cells recombinantly over-expressing GIPR or GLP-1R were grown to 50% confluency, washed with warm 1×PBS (Gibco) and detached in HEPES/EDTA-buffer (100 mM HEPES pH 7.5, 5 mM EDTA). Cells were harvested by centrifugation at 4° C. and 3000×g and the pellets were stored at −80° C. until further processing.
After thawing on ice, pellets were resuspended in HEPES/EDTA-buffer and homogenized on ice for 1 min using Ultra-Turray T25. After subsequent sonification the cell debris was removed by centrifugation at 1000×g and 4° C. Supernatants were then ultra-centrifuged at 100000×g and 4° C. under vacuum for 30 min. Pellets were resuspended in HEPES/EDTA/NaCl-buffer (20 mM HEPES, 1 mM EDTA, 150 mM NaCl; add 1 Complete Mini Protease inhibitor cocktail to 10 ml buffer) and protein content was determined via BCA-Protein assay.
(2) Measurement of Binding Activity of Test Compounds to Human GIPR or GLP-1R

[3] = target: T2, human GLP-1 receptor (hGLP-1R); assay: In vitro cellular cAMP assay for GLP-1 receptor efficacy (HEK-293 cell line over-expressing receptor); type: cell-based; details: HEK-293, 0.1% BSA
human GIP receptor = target: T3, human GIP receptor (Homo sapiens, UniProt P48546); assay: In vitro cellular cAMP assay for GIP receptor efficacy (human adipocytes); type: cell-based; details: for EC50: read-out: hGIPR EC50; for Emax: read-out: hGIPR Emax
T3 construct: human adipocytes endogenously expressing the human GIP receptor; host or cells: human preadipocytes (Lonza) differentiated to adipocytes
T3 sequence (P48546 22-466): T1 sequence (P48546 22-466)
Summary of the method: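 cAMP is read by HTRF (665/620 nm ratio, 1 h after reagents in lysis buffer) following 30 min compound exposure at room temperature. Cells are human preadipocyte-derived adipocytes, differentiated 6 days with insulin, dexamethasone, IBMX (200 μM), PPARγ agonist and L-thyroxine, seeded 5000 per well.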

[4] = target: T1, human GIP receptor (hGIPR); assay: Binding assay, displacement of [125I]GIP from HEK-293 membranes over-expressing GIPR (SPA); details: [125I]GIP displacement
Summary of the method: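 Membranes from HEK-293 cells over-expressing human GIPR or GLP-1R, isolated by homogenising, sonicating and ultracentrifuging at 100000×g into HEPES/EDTA/NaCl buffer with protease inhibitors, were used for binding.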

[5] = Solubility assessment (UHPLC-UV of supernatant, target 10 mg/ml); type: physicochemical; details: for solubility at 24 h: read-out: Soluble amount
Summary of the method: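 Peptides at 10 mg/ml (purity-corrected) in 100 mM phosphate pH 7.4, optionally with 2.7 mg/ml m-cresol; gentle agitation 1 h, then 5° C. overnight (24 h). Supernatant after 15 min centrifugation at 2500 RCF quantified by UHPLC-UV, with sequence-based extinction coefficients.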

[6] = EC50 hGIPR 0.1% BSA, HEK-293, 0.1% BSA
[7] = 100 mM phosphate buffer pH 7.4 (solubility buffer system A), pH 7.4, Solubility buffer system A: 100 mM phosphate buffer pH 7.4
[8] = pH 7.4, Solubility buffer system C: 100 mM phosphate buffer pH 7.4, 2.7 mg/ml m-cresol

T2 sequence (P43220 24-463): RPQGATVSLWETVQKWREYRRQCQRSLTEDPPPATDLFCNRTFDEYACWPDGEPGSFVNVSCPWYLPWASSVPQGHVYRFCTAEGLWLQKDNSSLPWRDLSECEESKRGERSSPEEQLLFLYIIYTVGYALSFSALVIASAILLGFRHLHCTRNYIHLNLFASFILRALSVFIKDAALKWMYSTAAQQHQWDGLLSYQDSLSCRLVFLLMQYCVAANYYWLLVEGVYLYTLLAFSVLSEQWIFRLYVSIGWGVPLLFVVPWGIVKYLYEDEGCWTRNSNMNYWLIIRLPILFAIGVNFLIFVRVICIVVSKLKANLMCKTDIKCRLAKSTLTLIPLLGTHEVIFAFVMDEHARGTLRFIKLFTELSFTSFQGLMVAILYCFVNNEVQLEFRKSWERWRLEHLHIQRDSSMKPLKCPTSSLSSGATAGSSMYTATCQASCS

| EC50 [1, 6] | IC50 [2] | EC50 [3] | EC50 (human GIP receptor) | Emax (human GIP receptor) | IC50 [4] | solubility at 24 h [5, 7] | solubility at 24 h [5, 8] | EC50 ([1]; HEK-293, without albumin (0% HSA), read-out: EC50 hGIPR 0% HSA) | solubility ([5]; pH 7.4, Soluble amount) | SMILES |
| --- | --- | --- | --- | --- | --- | --- | --- | --- | --- | --- |
| 28.5 pM | 116000 pM | – | – | – | 900 pM | – | – | – | – | CC[C@H](C)[C@H](NC(=O)[C@H](Cc1ccccc1)NC(=O)[C@H](CCC(=O)O)NC(=O)[C@H](CCC(=O)O)NC(=O)[C@H](CCC(N)=O)NC(=O)[C@H](Cc1c[nH]cn1)NC(=O)[C@@H](NC(=O)[C@H](CCCNC(=N)N)NC(=O)[C@H](CC(=O)O)NC(=O)[C@H](CCCCNC(=O)COCCOCCNC(=O)COCCOCCNC(=O)CC[C@H](NC(=O)CCCCCCCCCCCCCCCCC(=O)O)C(=O)O)NC(=O)C(C)(C)NC(=O)[C@@H](NC(=O)[C@H](CO)NC(=O)[C@H](CC(C)C)NC(=O)[C@H](CC(=O)O)NC(=O)[C@H](CO)NC(=O)[C@@H](NC(=O)[C@H](Cc1ccccc1)NC(=O)[C@@H](NC(=O)CNC(=O)[C@H](CCC(=O)O)NC(=O)C(C)(C)NC(=O)[C@@H](N)Cc1ccc(O)cc1)[C@@H](C)O)[C@@H](C)CC)[C@@H](C)CC)[C@@H](C)CC)C(=O)N[C@@H](CCC(=O)O)C(=O)N[C@@H](Cc1c[nH]c2ccccc12)C(=O)N[C@@H](CC(C)C)C(=O)N[C@@H](CC(C)C)C(=O)N[C@@H](C)C(=O)N[C@@H](CCC(N)=O)C(=O)N[C@@H](CCCNC(=N)N)C(=O)NCC(=O)O [SEQ ID NO: 13, H2N-Y-Aib-E-G-T-F-I-S-D-L-S-I-Aib-K[{AEEA}2-gGlu-C18OH]-D-R-I-H-Q-E-E-F-I-E-W-L-L-A-Q-R-G-OH] |
| 82.1 pM | 935000 pM | > 10000 pM | 800 pM | 110% | 200 pM | – | – | 1.37 pM | 7400 µg/mL (≈ 1700 µM) | CC[C@H](C)[C@H](NC(=O)[C@H](CCCNC(=N)N)NC(=O)[C@H](CC(=O)O)NC(=O)[C@H](CCCCNC(=O)COCCOCCNC(=O)COCCOCCNC(=O)CC[C@H](NC(=O)CCCCCCCCCCCCCCCCC(=O)O)C(=O)O)NC(=O)C(C)(C)NC(=O)[C@@H](NC(=O)[C@H](CO)NC(=O)[C@H](CC(C)C)NC(=O)[C@H](CC(=O)O)NC(=O)[C@H](CO)NC(=O)[C@@H](NC(=O)[C@@](C)(CC)NC(=O)[C@@H](NC(=O)CNC(=O)[C@H](CCC(=O)O)NC(=O)C(C)(C)NC(=O)[C@@H](N)Cc1ccc(O)cc1)[C@@H](C)O)[C@@H](C)CC)[C@@H](C)CC)C(=O)N[C@@H](Cc1c[nH]cn1)C(=O)N[C@@H](CCC(N)=O)C(=O)N[C@@H](CCC(=O)O)C(=O)N[C@@H](CCC(=O)O)C(=O)N[C@@](C)(Cc1ccccc1)C(=O)N[C@H](C(=O)N[C@@H](CCC(=O)O)C(=O)N[C@@H](Cc1c[nH]c2ccccc12)C(=O)N[C@@H](CC(C)C)C(=O)N[C@@H](CC(C)C)C(=O)N[C@@H](C)C(=O)N[C@@H](CCC(N)=O)C(=O)N[C@@H](CCCNC(=N)N)C(=O)NCC(N)=O)[C@@H](C)CC [SEQ ID NO: 17, H2N-Y-Aib-E-G-T-Iva-I-S-D-L-S-I-Aib-K[{AEEA}2-gGlu-C18OH]-D-R-I-H-Q-E-E-Mph-I-E-W-L-L-A-Q-R-G-NH2] |

The remaining lines, values behind:

| SMILES | EC50 [1, 6] | IC50 [2] | EC50 [3] | EC50 (human GIP receptor) | Emax (human GIP receptor) | IC50 [4] | solubility at 24 h [5, 7] | solubility at 24 h [5, 8] | EC50 ([1]; HEK-293, without albumin (0% HSA), read-out: EC50 hGIPR 0% HSA) | solubility ([5]; pH 7.4, Soluble amount) |
| --- | --- | --- | --- | --- | --- | --- | --- | --- | --- | --- |
| CC[C@H](C)[C@H](NC(=O)[C@H](CCCNC(=N)N)NC(=O)[C@H](CC(=O)O)NC(=O)[C@H](CCCCNC(=O)COCCOCCNC(=O)COCCOCCNC(=O)CC[C@H](NC(=O)CCCCCCCCCCCCCCCCCCC(=O)O)C(=O)O)NC(=O)C(C)(C)NC(=O)[C@@H](NC(=O)[C@H](CO)NC(=O)[C@H](CC(C)C)NC(=O)[C@H](CC(=O)O)NC(=O)[C@H](CO)NC(=O)[C@@H](NC(=O)[C@H](Cc1ccccc1)NC(=O)[C@@H](NC(=O)CNC(=O)[C@H](CCC(=O)O)NC(=O)C(C)(C)NC(=O)[C@@H](N)Cc1ccc(O)cc1)[C@@H](C)O)[C@@H](C)CC)[C@@H](C)CC)C(=O)N[C@@H](Cc1c[nH]cn1)C(=O)N[C@@H](CCC(N)=O)C(=O)NC(C)(C)C(=O)N[C@@H](CCC(=O)O)C(=O)N[C@@H](Cc1ccccc1)C(=O)N[C@H](C(=O)N[C@@H](CCC(=O)O)C(=O)N[C@@H](Cc1c[nH]c2ccccc12)C(=O)N[C@@H](CC(C)C)C(=O)N[C@@H](CC(C)C)C(=O)N[C@@H](C)C(=O)N[C@@H](CCC(N)=O)C(=O)N[C@@H](CCCNC(=N)N)C(=O)NCC(N)=O)[C@@H](C)CC [SEQ ID NO: 11, H2N-Y-Aib-E-G-T-F-I-S-D-L-S-I-Aib-K[{AEEA}2-gGlu-C20OH]-D-R-I-H-Q-Aib-E-F-I-E-W-L-L-A-Q-R-G-NH2] | 19.2 pM | 97000 pM | > 10000 pM | 1300 pM | 113% | 200 pM | 10700 µg/mL (≈ 2450 µM) | – | – | – |
| CC[C@H](C)[C@H](NC(=O)[C@H](CCCNC(=N)N)NC(=O)[C@H](CC(=O)O)NC(=O)[C@H](CCCCNC(=O)COCCOCCNC(=O)COCCOCCNC(=O)CC[C@H](NC(=O)CC[C@H](NC(=O)CCCCCCCCCCCCCCCCC(=O)O)C(=O)O)C(=O)O)NC(=O)C(C)(C)NC(=O)[C@@H](NC(=O)[C@H](CO)NC(=O)[C@H](CC(C)C)NC(=O)[C@H](CC(=O)O)NC(=O)[C@H](CO)NC(=O)[C@@H](NC(=O)[C@H](Cc1ccccc1)NC(=O)[C@@H](NC(=O)CNC(=O)[C@H](CCC(=O)O)NC(=O)C(C)(C)NC(=O)[C@@H](N)Cc1ccc(O)cc1)[C@@H](C)O)[C@@H](C)CC)[C@@H](C)CC)C(=O)N[C@@H](Cc1c[nH]cn1)C(=O)N[C@@H](CCC(N)=O)C(=O)NC(C)(C)C(=O)N[C@@H](CCC(=O)O)C(=O)N[C@@H](Cc1ccccc1)C(=O)N[C@H](C(=O)N[C@@H](CCC(=O)O)C(=O)N[C@@H](Cc1c[nH]c2ccccc12)C(=O)N[C@@H](CC(C)C)C(=O)N[C@@H](CC(C)C)C(=O)N[C@@H](C)C(=O)N[C@@H](CCC(N)=O)C(=O)N[C@@H](CCCNC(=N)N)C(=O)NCC(N)=O)[C@@H](C)CC [SEQ ID NO: 9, H2N-Y-Aib-E-G-T-F-I-S-D-L-S-I-Aib-K[{AEEA}2-{gGlu}2-C18OH]-D-R-I-H-Q-Aib-E-F-I-E-W-L-L-A-Q-R-G-NH2] | 9.17 pM | 224000 pM | > 10000 pM | 800 pM | 108% | 600 pM | > 10200 µg/mL | 7700 µg/mL (≈ 1720 µM) | – | – |
| CC[C@H](C)[C@H](NC(=O)[C@H](CCCNC(=N)N)NC(=O)[C@H](CC(=O)O)NC(=O)[C@H](CCCCNC(=O)CNC(=O)CNC(=O)CNC(=O)CC[C@H](NC(=O)CCCCCCCCCCCCCCCCC(=O)O)C(=O)O)NC(=O)C(C)(C)NC(=O)[C@@H](NC(=O)[C@H](CO)NC(=O)[C@H](CC(C)C)NC(=O)[C@H](CC(=O)O)NC(=O)[C@H](CO)NC(=O)[C@@H](NC(=O)[C@H](Cc1ccccc1)NC(=O)[C@@H](NC(=O)CNC(=O)[C@H](CCC(=O)O)NC(=O)C(C)(C)NC(=O)[C@@H](N)Cc1ccc(O)cc1)[C@@H](C)O)[C@@H](C)CC)[C@@H](C)CC)C(=O)N[C@@H](Cc1c[nH]cn1)C(=O)N[C@@H](CCC(N)=O)C(=O)NC(C)(C)C(=O)N[C@@H](CCC(=O)O)C(=O)N[C@@H](Cc1ccccc1)C(=O)N[C@H](C(=O)N[C@@H](CCC(=O)O)C(=O)N[C@@H](Cc1c[nH]c2ccccc12)C(=O)N[C@@H](CC(C)C)C(=O)N[C@@H](CC(C)C)C(=O)N[C@@H](C)C(=O)N[C@@H](CCC(N)=O)C(=O)N[C@@H](CCCNC(=N)N)C(=O)NCC(N)=O)[C@@H](C)CC [SEQ ID NO: 7, H2N-Y-Aib-E-G-T-F-I-S-D-L-S-I-Aib-K[{Gly}3-gGlu-C18OH]-D-R-I-H-Q-Aib-E-F-I-E-W-L-L-A-Q-R-G-NH2] | 9.64 pM | 106000 pM | > 10000 pM | 400 pM | 121% | 100 pM | 9100 µg/mL (≈ 2160 µM) | 4000 µg/mL (≈ 949 µM) | – | – |
